Results on 4 molecules are retold here after patent US20090306035A1, “Compounds and Methods for modulating the Silencing of a Polynucleotide of Interest” (Emory University, priority 2005, published 2009).

Holding throughout (type): cell-based
One experiment relates to miR-30a-3p. Nature of the experiment: miRNA sensor (Luc-T30 reporter with miR-30a-3p target sites), dual luciferase assay of HepG2 cells. Particulars: reporter with miR-30 target sequence, endogenously expressed miR-30, FIG. 7. The procedure: In FIG. 6, top left panel, the blue arrowheads in Luc-T30 indicate artificial target sequence against miR-30a-3p. Luc-AT30 has an artificial sequence complementary to that in Luc-T30. […] Relative luciferase activity was calculated by dividing the reporter (Firefly) luciferase activity with co-transfected Renilla luciferase activity. Luciferase activity was decreased by transfecting Luc-T30 in HepG2 (orange bars) without changes in the amount of its mRNA (blue bars). Error bars represent the standard deviation (SD) of three triplicate experiments. […] Error bars represent the standard deviation (SD) from three triplicate experiments. **P=0.004; *****P=0.00001.
This reporter contains the target sequence of miR-30. In the miR-30 system, the endogenously expressed miR-30 was used and, in this cell line, miR-30 has been processed completely. Thus, the addition of enoxacin had no effect.

Experiment [1] has as its system shRNA against Luciferase mRNA. Nature of the experiment: GL-3 luciferase reporter transfected into cells expressing shRNA against Luciferase mRNA. The settings on record: GL-3 luciferase plus shLuc, FIG. 5. The text has this: In this example, a luciferase reporter construct GL-3 was transfected into the cells expressing shRNA against Luciferase mRNA.
On the technique in general: A reporter such as luciferase makes a cellular process visible.

For experiment [2], the system named is siRNA-mediated mRNA degradation and gene knock-down (GFP siRNA). Nature of the experiment: GFP reporter screen: 293 cells stably expressing GFP and an siRNA hairpin against GFP. Particulars: human 293 cells, GFP reporter with siRNA hairpin against GFP; Spectrum Collection screen. The procedure:
FIG. 2 discloses one embodiment of the cell-based reporter system of the invention. In this example, a human 293-cell line stably expressing a reporter gene, GFP, was used. This cell line was further transfected with a construct that expresses siRNA hairpin against GFP, which can decrease the level of GFP expression. Individual clones were isolated with greatly (although not completely) reduced GFP expression.
Using the above-identified clones, a screen was performed using The Spectrum Collection (MicroSource Discovery Systems, Inc., Gaylordsville, Conn., United States of America), which contains 2000 biologically active and structurally diverse compounds from libraries of known drugs, experimental bioactives, and pure natural products. For example, in one embodiment, a pilot screen of this library identified one inhibitor and one enhancer of siRNA-mediated mRNA degradation.
To identify the chemical compounds that modulate the siRNA and miRNA pathway, a screening strategy was used. A human 293-cell line stably expressing a reporter gene, GFP, was used. This cell line was further transfected with a construct that expresses siRNA hairpin against GFP, which could knock down the expression of GFP. […]

For `COc1cc(C(=O)NCc2ccc(OCCN(C)C)cc2)cc(OC)c1OC` [RNAi-I], the miRNA-mediated translational suppression result with miR-30a-3p is given as “released the miRNA-mediated translational suppression”.

As for `O=C(O)c1cn(C2CC2)c2cc(N3CCNCC3)c(F)cc2c1=O` [ciprofloxacin], the “knock-down efficiency of shRNA against luciferase mRNA (relative luciferase activity)” value is given as “enhance siRNA-mediated mRNA degradation” in experiment [1] and “increased the knock-down efficiency” in experiment [1] (listed as ciproflaxin).

Consider `CCn1cc(C(=O)O)c(=O)c2cc(F)c(N3CCNCC3)nc21` [enoxacin], for which the “effect on siRNA-mediated mRNA degradation and gene knock-down” value in experiment [2] was “enhance siRNA-mediated mRNA degradation and gene knock-down”. The miRNA-mediated translational suppression entry in the experiment on miR-30a-3p was “no effect”. The “knock-down efficiency of shRNA against luciferase mRNA (relative luciferase activity)” value in experiment [1] was “increased the knock-down efficiency”.

For the molecule `COc1cc(C(=O)NCc2ccc(OCCN(C)C)cc2)cc(OC)c1OC` [trimethobenzamide], in experiment [2], the “effect on siRNA-mediated mRNA degradation and gene knock-down” value was “inhibit siRNA-mediated mRNA degradation and gene knock-down”.
